Values of other authors as cited in US20230248672A1, “COMPOSITIONS COMPRISING GARDOS CHANNEL ANTAGONISTS AND THEIR USES” (ADIMABIO LLC, priority 2020, published 2023).
In brackets after ≈: the same amount, converted by molar mass.

Assays:
[1] = not given; remark: listed apart in the source
[2] = test system: sickle cell disease patients
Gardos channel = Gardos channel (Homo sapiens, UniProt O15554)
[3] = not given; remark: listed apart in the source
[4] = rats, administered orally

Row | SMILES | aqueous solubility [mg/mL] | log P [1] | rate of sickle cell painful crises ([2]; compared to placebo) | tolerability ([2]; dose of 10 mg, sickle cell disease patients) | hemoglobin ([2]; sickle cell disease patients) | markers of hemolysis ([2]; sickle cell disease patients) | block of potassium efflux through the Gardos channel (Gardos channel; red blood cells) | oral bioavailability [3] [%] | time at which maximum concentration is attained [4] [h] | inhibition of the Gardos channel (Gardos channel; normal and sickle erythrocytes)
1 | NC(=O)C(c1ccccc1)(c1ccc(F)cc1)c1ccc(F)cc1 [senicapoc, 2,2-bis(4-fluorophenyl)-2-phenylacetamide] | 0.975 (≈ 3.02 mM) | 3.59 | no significant improvement | well tolerated | dose-dependent increase | decrease | selectively blocks | 51 | 4 | –
2 | Clc1ccccc1C(c1ccccc1)(c1ccccc1)n1ccnc1 [Clotrimazole] | – | – | – | – | – | – | – | – | – | specific, potent inhibitor
